The text below walks through data of the C3SDB collision cross section collection.

Values joined by “and” are separate entries in the source; they are usually repeats but may differ in a detail not shown here. Identical values can stand only once.

For series [1] the following is noted: instrument: DT, single field, calibrated with ESI Low Concentration Tuning Mix (Agilent).
For series [2] the following is noted: instrument: TW, calibrated with polyalanine and drug standards.

Regarding `C[n+]1cccc(C(N)=O)c1` [1-METHYLNICOTINAMIDE], the “collision cross section (N2)” value in series [1] ([M+]+) turned out to be 126.2 Å².

On to `CC(=O)N[C@@H]1[C@@H](O)[C@H](O)[C@@H](CO)O[C@H]1N` [2-ACETAMIDO-2-DEOXY-BETA-D-GLUCOSYLAMINE], for which the “collision cross section (N2)” value in series [1] ([M+Na]+) was 149.1 Å² and 157.8 Å²; in series [1] ([M-H]-), 155.2 Å². For `CC[C@H](O)C(=O)O` [2-HYDROXYBUTYRATE], the “collision cross section (N2)” value in series [1] ([M-H]-) was determined as 117.2 Å².

As for `CC(CCC(=O)O)C(=O)O` (stereo unspecified) [2-METHYLGLUTARATE], the “collision cross section (N2)” value in series [1] ([M+Na-2H]-) is recorded as 132.6 Å²; in series [1] ([M+Na]+), 137.4 Å²; in series [1] ([M-H]-), 126 Å². Regarding `C/C(=C/C(=O)O)C(=O)O` [2-METHYLMALEATE], in series [1] ([M-H]-), the “collision cross section (N2)” value worked out at 118.2 Å². With `O=C(O)C(CO)OP(=O)(O)O` (stereo unspecified) [2-PHOSPHOGLYCERATE], the “collision cross section (N2)” value in series [1] ([M+H]+) came to 134.3 Å²; in series [1] ([M+Na-2H]-), 133.1 Å²; in series [1] ([M+Na]+), 141.9 Å²; in series [1] ([M-H]-), 124.2 Å². For the compound `O=C(O)c1ccc([O-])c(O)c1` [3,4-DIHYDROXYBENZOATE], in series [1] ([M-H]-), the “collision cross section (N2)” value is given as 122.5 Å². On to `N[C@@H](Cc1cc(I)c(Oc2ccc(O)cc2)c(I)c1)C(=O)O` [3,5-DIIODO-L-THYRONINE], for which the “collision cross section (N2)” value is listed as 198.5 Å² in series [1] ([M+H]+), 189.4 Å² in series [1] ([M+Na]+) and 188.2 Å² in series [1] ([M-H]-). With `O=C([O-])CCc1ccccc1O` [3-(2-HYDROXYPHENYL)PROPANOATE], in series [1] ([M-H]-), the “collision cross section (N2)” value is recorded as 133.2 Å².

Consider `O=Cc1cccc(O)c1` [3-HYDROXYBENZALDEHYDE], for which the “collision cross section (N2)” value in series [1] ([M-H]-) stood at 118 Å².

With `CC1C(=O)Nc2ccccc21` (stereo unspecified) [3-METHYL-2-OXINDOLE], the “collision cross section (N2)” value in series [1] ([M+H]+) was 130.4 Å².

Regarding `CCC(C)C(=O)C(=O)O` (stereo unspecified) [3-METHYL-2-OXOVALERATE], in series [1] ([M-H]-), the “collision cross section (N2)” value is recorded as 127.1 Å². In the case of `NC(CS(=O)O)C(=O)O` (stereo unspecified) [3-SULFINOALANINE], the “collision cross section (N2)” value in series [1] ([M+H]+) was determined as 133.7 Å².

Take `Nc1ccc(C(=O)[O-])cc1` [4-AMINOBENZOATE]: the “collision cross section (N2)” value in series [1] ([M+H]+) was 126.9 Å². Turning to `COc1cc(NS(=O)(=O)c2ccc(N)cc2)nc(OC)n1` [SULFADIMETHOXINE], in series [2] ([M+H]+), the “collision cross section (N2)” value worked out at 167.7 Å². The same measure, in the same setting: next, `Cc1ccnc(NS(=O)(=O)c2ccc(N)cc2)n1` [SULFAMERAZINE]: 156.3 Å². Same read-out and setting: next, `Cc1nnc(NS(=O)(=O)c2ccc(N)cc2)s1` [SULFAMETHIZOLE]: 155.2 Å²; `Cc1cc(NS(=O)(=O)c2ccc(N)cc2)no1` [SULFAMETHOXAZOLE]: 151.4 Å².

On to `COc1ccc(NS(=O)(=O)c2ccc(N)cc2)nn1` [SULFAMETHOXYPYRIDAZINE], for which the “collision cross section (N2)” value in series [2] ([M+H]+) amounted to 159.4 Å². For `COc1cc(NS(=O)(=O)c2ccc(N)cc2)ncn1` [SULFAMONOMETHOXINE], in series [2] ([M+H]+), the “collision cross section (N2)” value is reported as 159.5 Å².

As for `Nc1ccc(S(=O)(=O)Nc2ccccn2)cc1` [SULFAPYRIDINE], the “collision cross section (N2)” value in series [2] ([M+H]+) is 151.6 Å². On to `O=C(O)C1=C/C(=N/Nc2ccc(S(=O)(=O)Nc3ccccn3)cc2)C=CC1=O` [SULFASALAZINE], for which the “collision cross section (N2)” value in series [2] ([M+H]+) is recorded as 200.4 Å². On the same count and under the same terms, next, `CC(=O)N(c1onc(C)c1C)S(=O)(=O)c1ccc(N)cc1` [SULFISOXAZOLE ACETYL]: 161.2 Å². On the same count and under the same terms, next, `CC1=C(CC(=O)O)c2cc(F)ccc2/C1=C\c1ccc(S(C)=O)cc1` (stereo unspecified) [SULINDAC]: 191.6 Å².

Regarding `COc1cc(S(C)=O)ccc1-c1nc2ncccc2[nH]1` (stereo unspecified) [SULMAZOLE], the “collision cross section (N2)” value in series [2] ([M+H]+) was determined as 166.4 Å². In the case of `CC(C(=O)O)c1ccc(C(=O)c2cccs2)cc1` (stereo unspecified) [SUPROFEN], the “collision cross section (N2)” value in series [2] ([M+H]+) was 157.2 Å².

As for `CCCCC1(COC(=O)CCC(=O)O)C(=O)N(c2ccccc2)N(c2ccccc2)C1=O` [SUXIBUZONE], the “collision cross section (N2)” value in series [2] ([M+H]+) is listed as 199.3 Å². For `Cc1coc2c1C(=O)C(=O)c1c-2ccc2c1CCCC2(C)C` [TANSHINONE IIA], the “collision cross section (N2)” value in series [2] ([M+H]+) came out at 164 Å². Turning to `O=C(O)C(O)C(O)C(=O)O` (stereo unspecified) [TARTARIC ACID], the “collision cross section (N2)” value in series [2] ([M+H]+) is on record as 124.4 Å². Same read-out and setting: next, `CC[C@H]1OC(=O)[C@H](C)C(=O)[C@H](C)[C@@H](O[C@@H]2O[C@H](C)C[C@H](N(C)C)[C@H]2O)[C@](C)(OC)C[C@@H](C)C(=O)[C@H](C)[C@H]2N(CCCCn3cnc(-c4cccnc4)c3)C(=O)O[C@]12C` [TELITHROMYCIN]: 269.7 Å².

Consider `CC(C)(C)c1ccc(C(O)CCCN2CCC(C(O)(c3ccccc3)c3ccccc3)CC2)cc1` (stereo unspecified) [TERFENADINE], for which the “collision cross section (N2)” value in series [2] ([M+H]+) turned out to be 226.8 Å².

Turning to `CCC(=O)O[C@H]1CC[C@H]2[C@@H]3CCC4=CC(=O)CC[C@]4(C)[C@H]3CC[C@]12C` [TESTOSTERONE PROPIONATE], the “collision cross section (N2)” value in series [2] ([M+H]+) is 188.2 Å². Turning to `COc1ccc2cc1Oc1ccc(cc1)C[C@H]1c3cc(c(OC)cc3CCN1C)Oc1c(OC)c(OC)cc3c1[C@H](C2)N(C)CC3` [TETRANDRINE], the “collision cross section (N2)” value in series [2] ([M+H]+) turned out to be 245.3 Å². Take `O=C(O[C@@H]1Cc2c(O)cc(O)cc2O[C@@H]1c1cc(=O)c(O)c2c(O)c(O)cc([C@H]3Oc4cc(O)cc(O)c4C[C@H]3O)c2c1)c1cc(O)c(O)c(O)c1` [THEAFLAVIN MONOGALLATES]: the “collision cross section (N2)” value in series [2] ([M+H]+) is reported as 245.7 Å².

For the compound `O=c1cc([C@H]2Oc3cc(O)cc(O)c3C[C@H]2O)cc2c([C@H]3Oc4cc(O)cc(O)c4C[C@H]3O)cc(O)c(O)c2c1O` [THEAFLAVIN], the “collision cross section (N2)” value in series [2] ([M+H]+) is on record as 219.8 Å². `Nc1nc(=S)c2[nH]cnc2[nH]1` [THIOGUANINE]: in series [2] ([M+H]+), the “collision cross section (N2)” value stood at 129.7 Å². Consider `Nc1nc(=S)c2ncn([C@@H]3O[C@H](CO)[C@@H](O)[C@H]3O)c2[nH]1` [THIOGUANOSINE], for which the “collision cross section (N2)” value in series [2] ([M+H]+) was determined as 164 Å². On the same count and under the same terms, next, `O=c1oc2cc(O)ccc2s1` [TIOXOLONE]: 130.2 Å²; `CC(=O)OCC(=O)[C@@]1(O)[C@H](OC(C)=O)C[C@H]2[C@@H]3CCC4=CC(=O)C=C[C@]4(C)[C@@]3(F)[C@@H](O)C[C@@]21C` [TRIAMCINOLONE DIACETATE]: 209.5 Å². In the case of `CSc1nc2cc(Oc3cccc(Cl)c3Cl)c(Cl)cc2[nH]1` [TRICLABENDAZOLE], the “collision cross section (N2)” value in series [2] ([M+H]+) was found to be 179.3 Å².

With `COc1cc2c(c(OC)c1OC)-c1ccc(O)c(=O)cc1[C@@H](N)CC2` [TRIMETHYLCOLCHICINIC ACID], the “collision cross section (N2)” value in series [2] ([M+H]+) amounted to 181 Å². Turning to `Cc1cc2cc3c(C)cc(=O)oc3c(C)c2o1` [TRIOXSALEN], the “collision cross section (N2)” value in series [2] ([M+H]+) is on record as 147.4 Å². Consider `CC(C)c1ccc2c(c1O)CC[C@H]1C3=C(CC[C@]21C)C(=O)OC3` [TRIPTOPHENOLIDE], for which the “collision cross section (N2)” value in series [2] ([M+H]+) worked out at 179.4 Å². For `C[C@@H]1O[C@@H](OC[C@H]2O[C@@H](Oc3c(-c4ccc(OCCO)c(OCCO)c4)oc4cc(OCCO)cc(O)c4c3=O)[C@H](O)[C@@H](O)[C@@H]2O)[C@H](O)[C@H](O)[C@H]1O` [TROXERUTIN], in series [2] ([M+H]+), the “collision cross section (N2)” value stood at 259 Å². As to `NCCc1c[nH]c2ccccc12` [TRYPTAMINE], the “collision cross section (N2)” value in series [2] ([M+H-H2O]+) was found to be 124.4 Å².

For the compound `COc1cc2c3cc1Oc1cc(ccc1O)C[C@@H]1c4c(cc(OC)c(O)c4Oc4ccc(cc4)C[C@@H]3N(C)CC2)CC[N+]1(C)C` [TUBOCURARINE CHLORIDE], in series [2] ([M+H]+), the “collision cross section (N2)” value is recorded as 236 Å². On to `CC(C)[C@@H]1NC(=O)[C@H](C)OC(=O)[C@@H](C(C)C)NC(=O)[C@@H](C(C)C)OC(=O)[C@H](C(C)C)NC(=O)[C@H](C)OC(=O)[C@@H](C(C)C)NC(=O)[C@@H](C(C)C)OC(=O)[C@H](C(C)C)NC(=O)[C@H](C)OC(=O)[C@@H](C(C)C)NC(=O)[C@@H](C(C)C)OC1=O` [VALINOMYCIN], for which the “collision cross section (N2)” value in series [2] ([M+H]+) stood at 327.4 Å².

Regarding `CCCCC(=O)N(Cc1ccc(-c2ccccc2-c2nn[nH]n2)cc1)[C@H](C(=O)O)C(C)C` [VALSARTAN], the “collision cross section (N2)” value in series [2] ([M+H]+) is recorded as 202 Å². In the case of `Nc1ncnc2c1ncn2[C@@H]1O[C@H](CO)[C@@H](O)[C@@H]1O` [VIDARABINE], the “collision cross section (N2)” value in series [2] ([M+H]+) is given as 156.4 Å². Same read-out and setting: the value for `CC[C@]12CCCN3CCc4c(n(c5ccccc45)[C@@](O)(C(=O)OC)C1)[C@@H]32` [VINCAMINE] was 180.9 Å²; that for `COc1cc(O)c(C(C)=O)c(OC)c1` [XANTHOXYLIN] was 135.9 Å²; that for `CCCOc1ccccc1-c1nc2[nH][nH]nc-2c(=O)n1` [ZAPRINAST] was 159.2 Å². Consider `CN(C)CCc1c[nH]c2ccc(C[C@H]3COC(=O)N3)cc12` [ZOLMITRIPTAN], for which the “collision cross section (N2)” value in series [2] ([M+H]+) is 159.7 Å².

`CN1CCN(C(=O)OC2c3nccnc3C(=O)N2c2ccc(Cl)cn2)CC1` (stereo unspecified) [ZOPICLONE]: in series [2] ([M+H]+), the “collision cross section (N2)” value worked out at 186.5 Å². In the case of `CC(=O)O[C@@H]1CC2C(C)(C)[C@H](O)CC[C@]2(C)C2CC[C@@]3(C)[C@H](c4ccoc4)OC(=O)C4OC43[C@@]21C` (stereo partly drawn) [alpha-DIHYDROGEDUNOL], in series [2] ([M+H]+), the “collision cross section (N2)” value came out at 205.9 Å². For the compound `COc1c(O)cc2oc3cc(O)c(CC=C(C)C)c(O)c3c(=O)c2c1CC=C(C)C` [alpha-MANGOSTIN], in series [2] ([M+H]+), the “collision cross section (N2)” value was 198.8 Å². Consider `CC(=O)Oc1c(C)c(C)c2c(c1C)CCC(C)(CCCC(C)CCCC(C)CCCC(C)C)O2` (stereo not drawn) [alpha-TOCHOPHERYL ACETATE], for which the “collision cross section (N2)” value in series [2] ([M+H]+) was 230.2 Å². On the same count and under the same terms, next, `CC12CCCC(O)(C1)C1CC(C)(C)C1CC2` (stereo not drawn) [beta-CARYOPHYLLENE ALCOHOL]: 146.1 Å².
